Test results as given in patent US20090247495A1, “CU[…] AND USES THEREOF” (priority 2007, published 2009).

Experiments:
[1] = system: Human leukemia cell lines CCRF-CEM, K562, MOLT-4, RPMI-8226 and SR; test: Cell proliferation assay using SRB, 5 human leukemia cell lines; assay type: cell-based; details: 48 hours treatment, range over all leukemia cell lines
Procedure: Human leukemia cell lines CCRF-CEM, K562, MOLT-4, RPMI-8226 and SR, purchased from the National Cancer Institute (NCI), were cultured in RPMI 1640 medium supplemented with 5%(v/v) fetal Bovine […] and 100 units/ml penicillin and 100 units/ml streptomycin in a humidified 5% CO2 atmosphere at 37° C. • 6.1.2 Reagents and Antibodies
All 5 human leukemia cells were screened by the cell proliferation assay using SRB to quantitative cell protein mass following cucurbitacin B treatment. The experiments were repeated in triplicate. Appropriate number of cells (depends on the doubling time of cells) were seeded into a 96-well tissue culture plate and growth in the indicated medium in presence of different dosages of cucurbitacin B for 2 days. Afterwards 25 μl 80%TCA reagent was added into each well to fix the cells and the plates were incubated at 4° C. at least for 1 hour. Then the plates were washed with tap water and air dried. […] The plates were air dried and dissolved by 100 μl 1 OmMTrizma-base solution and the absorbance was measured at 515 nm using FLUOstar OPTIMA equipment. • 6.1.4 Flow Cytometry for Apoptosis Analysis
Appropriate number of cell density were seeded into a 96 well culture plate and treated with different doses of cucurbitacin B for 2 days. The growth inhibition effects of cucurbitacin B on the cells were detected using SRB.

[2] = system: Human liver cancer cell lines HepG2; test: MTT cytotoxicity assay, matrix combination of CuB and Sb on liver cancer cells; assay type: cell-based; details: HepG2, 2 days, Sb 0 μM
Procedure: Human liver cancer cell lines HepG2 was purchased from American Type Culture Collection (ATCC, Manassas, Va., USA). The cells were cultured in RPMI 1640 medium supplemented with 5% (v/v) fetal bovine serum (FBS) and 100 units/ml penicillin and streptomycin (Invitrogen Life Technologies) in a humidified 5% CO2 atmosphere at 37° C.
A total of 1×10^4 cells were seeded into a 96-well plate for 24 hours prior to drug treatment. They were then treated with different dosages (a multiple of 20-fold of IC50 values) of CuB or Sb for 48 hours. After the treatment, 20 μl of MTT (5 mg/ml) was added to each well and incubated for 4 hrs. Then the medium was discarded and 100 μl of dimethyl sulfoxide was added. The absorbance at 570 nm was then measured by using FLUOstar OPTIMA equipment (BMG, LABTECH GmbH, Germany). The percentage of inhibition against different dosages of CuB or Sb were plotted using the Prism software and the 50% inhibition concentration (IC50) were obtained.
The cells were then treated for 2 days and the % inhibition of growth is determined.
The excess over Bliss additivism may be calculated using the following formula and shown in Table 4: • Bliss Additivism: Combined response=CuB+Sb−(CuB)(Sb) where each effect is expressed as fractional inhibition between 0 and 1 • Excess over additivism=observed response−combined response

[3] = system: Human cancer cell lines from the 59-NCI Cancer Cell Line Panel; test: Apoptosis (Annexin V-FITC / PI) by flow cytometry, 18 selected NCI panel cell lines; assay type: cell-based; details: 48 hours; GI50, ½ GI50 and ¼ GI50
Procedure: Apoptosis is the important mechanism for cell death in normal cells. In cancer cells, this mechanism fails and cells proliferate without control. Human cancer cell lines from the 59-NCI Cancer Cell Line Panel including leukemia, melanoma and cancers of breast, brain, colon, lung, ovary, prostate and kidney were purchased from the National Institute of Cancer. […] They were treated with cucurbitacin B and cucurbitacin D at three different concentrations to elucidate their ability to induce any changes in cell cycle.
Cancer cell lines were maintained in RPMI 1640 supplemented with 5% Fetal Bovine Serum, 2 mM L-glutamine and 1% Penicillin/Streptomycin at 37° C. with 5% CO2. Cells were inoculated into tissue culture flask at cell concentrations from 50000 to 400,000 cells/ml according to the NCI guideline. The cells were incubated at 37° C. with 5% CO2 for 24 hours. Cucurbitacin B and cucurbitacin D were added to the cells of final concentrations ranging from 6 to 350 nM (GI50, ½ GI50 and ¼ GI50 of particular cell line) for 48 hours at 37° C. with 5% CO2. Cells (3×10^5) were then harvested and stained with 5 μl Annexin V-FITC and 10 μl propidium iodine (Becton Dickinson, CA, USA) for 15 minutes at room temperature. Ten thousands events were collected by the FACScaliber and the percentage of different cell populations were analyzed by the CellQuest™ software (Becton Dickinson).

[4] = system: HepG2-resistant (HepG2-R); test: Hollow fiber assay, HepG2-resistant; assay type: in vivo, nude mice; details: up to 14 days
Procedure: The hollow fiber assay (HFA) was developed by the NCI as a high-throughput, preliminary in vivo screening assay for the evaluation of anti-cancer agents. Human liver cancer cell lines HepG2 and HepG2-resistant (HepG2-R) were in vitro cultured inside hollow fibers for a short term (48 hours), followed by in vivo implantation at s.c. sites of the nude mice. Mice were treated with negative control (0.5% CMC), positive control (10 mg/kg 5-Fluorouracil) and cucurbitacin B (0.2 mg/kg) for up to 14 days. Then the fibers were excised and analyzed for cell viability by MTT assay. The efficacies of cucurbitacin B against HepG2 and HepG2-R were expressed as the percentage of the results obtained in the negative control group.

CC(=O)OC(C)(C)/C=C/C(=O)[C@](C)(O)C1[C@H](O)C[C@@]2(C)C3CC=C4C(C[C@H](O)C(=O)C4(C)C)[C@]3(C)C(=O)C[C@]12C (stereo partly shown) [cucurbitacin B]
GI50 [1]: 15.6 to 35.3 nM
% inhibition ([2]; CuB 0.056 μM): 25.89%
Excess over Bliss additivism ([2]; CuB 0.056 μM): 0
Excess over Highest Single Agent Model ([2]; CuB 0.056 μM): 0
% inhibition ([2]; CuB 0.167 μM): 41.93%
Excess over Bliss additivism ([2]; CuB 0.167 μM): 0
Excess over Highest Single Agent Model ([2]; CuB 0.167 μM): 0
% inhibition ([2]; CuB 0.5 μM): 37.94%
Excess over Bliss additivism ([2]; CuB 0.5 μM): 0
Excess over Highest Single Agent Model ([2]; CuB 0.5 μM): 0
% inhibition ([2]; CuB 1.5 μM): 39.01%
Excess over Bliss additivism ([2]; CuB 1.5 μM): 0
Excess over Highest Single Agent Model ([2]; CuB 1.5 μM): 0
% inhibition ([2]; CuB 4.5 μM): 36.57%
Excess over Bliss additivism ([2]; CuB 4.5 μM): 0
Excess over Highest Single Agent Model ([2]; CuB 4.5 μM): 0
cell lines in which apoptosis was induced [3]: 9 out of 18
Cell growth rate compared with the negative control group ([4]; 0.2 mg/kg p.o.): about 75%
cell growth in hollow fibers ([4]; 0.2 mg/kg, i.p., s.c. and p.o.): potently inhibited
